Experimental data published in patent US20230120895A1, “PESTICIDALLY ACTIVE HETEROCYCLIC DERIVATIVES WITH SULFUR CONTAINING SUBSTITUENTS” (SYNGENTA CROP PROTECTION AG, priority 2019, published 2023).

Legend:
Assay type in all cases: in vivo
Euschistus heros = experiment: Activity against Euschistus heros (neotropical brown stink bug); conditions: 120 h, application rate 200 ppm, sprayed soybean leaves, N2 nymphs, 5 days after infestation, read-out: effect in at least one of the two categories (mortality or growth inhibition)
Experimental: Soybean leaves on agar in 24-well microtiter plates were sprayed with aqueous test solutions prepared from 10′000 ppm DMSO stock solutions. After drying the leaves were infested with N2 nymphs. The samples were assessed for mortality and growth inhibition in comparison to untreated samples 5 days after infestation.

Plutella xylostella = experiment: Activity against Plutella xylostella (diamond back moth); conditions: 192 h, application rate 200 ppm, artificial diet, eggs, 8 days after infestation, read-out: effect in at least one of the two categories (mortality or growth inhibition)
Experimental: 24-well microtiter plates with artificial diet were treated with aqueous test solutions prepared from 10′000 ppm DMSO stock solutions by pipetting. After drying, Plutella eggs were pipetted through a plastic stencil onto a gel blotting paper and the plate was closed with it. The samples were assessed for mortality and growth inhibition in comparison to untreated samples 8 days after infestation. The following compounds gave an effect of at least 80% in at least one of the two categories (mortality or growth inhibition) at an application rate of 200 ppm: P2, P3, P4, P5, P6, P8, P13.

Myzus persicae [1] = experiment: Activity against Myzus persicae (green peach aphid), feeding/contact activity; conditions: foliar, 144 h, application rate 200 ppm, sprayed sunflower leaf discs, mixed ages, 6 days after infestation
Experimental: Sunflower leaf discs were placed onto agar in a 24-well microtiter plate and sprayed with aqueous test solutions prepared from 10′000 ppm DMSO stock solutions. After drying, the leaf discs were infested with an aphid population of mixed ages. The samples were assessed for mortality 6 days after infestation.

Diabrotica balteata = experiment: Activity against Diabrotica balteata (corn root worm); conditions: 96 h, application rate 200 ppm, sprayed maize sprouts, L2 larvae, 4 days after infestation, read-out: effect in at least one of the two categories (mortality or growth inhibition)
Experimental: Maize sprouts placed onto an agar layer in 24-well microtiter plates were treated with aqueous test solutions prepared from 10′000 ppm DMSO stock solutions by spraying. After drying, the plates were infested with L2 larvae (6 to 10 per well). The samples were assessed for mortality and growth inhibition in comparison to untreated samples 4 days after infestation.

Spodoptera littoralis = experiment: Activity against Spodoptera littoralis (Egyptian cotton leaf worm); conditions: foliar, 72 h, application rate 200 ppm, sprayed cotton leaf discs, L1 larvae, 3 days after infestation, read-out: control (mortality, anti-feeding effect or growth inhibition)
Experimental: Cotton leaf discs were placed onto agar in 24-well microtiter plates and sprayed with aqueous test solutions prepared from 10′000 ppm DMSO stock solutions. After drying the leaf discs were infested with five L1 larvae. The samples were assessed for mortality, anti-feeding effect, and growth inhibition in comparison to untreated samples 3 days after infestation. Control of Spodoptera littoralis by a test sample is given when at least one of the categories mortality, anti-feedant effect, and growth inhibition is higher than the untreated sample.

Myzus persicae [2] = experiment: Activity against Myzus persicae (green peach aphid), systemic activity; conditions: 144 h, test rate 24 ppm, roots of pea seedlings in test solution, 6 days
Experimental: Roots of pea seedlings infested with an aphid population of mixed ages were placed directly into aqueous test solutions prepared from 10′000 DMSO stock solutions. The samples were assessed for mortality 6 days after placing seedlings into test solutions.

Chilo suppressalis = experiment: Activity against Chilo suppressalis (striped rice stemborer); conditions: 144 h, application rate 200 ppm, artificial diet, L2 larvae, 6 days after infestation, read-out: control (mortality, anti-feeding effect or growth inhibition)
Experimental: 24-well microtiter plates with artificial diet were treated with aqueous test solutions prepared from 10′000 ppm DMSO stock solutions by pipetting. After drying, the plates were infested with L2 larvae (6-8 per well). The samples were assessed for mortality, anti-feeding effect, and growth inhibition in comparison to untreated samples 6 days after infestation. Control of Chilo suppressalis by a test sample is given when at least one of the categories mortality, anti-feedant effect, and growth inhibition is higher than the untreated sample.

[3] = system: Carpocapsa (Cydia) pomonella; experiment: Activity against Carpocapsa (Cydia) pomonella (codling moth); conditions: 336 h, application rate 12.5 ppm, sprayed diet cubes, L1 larvae, 14 days after infestation
Experimental: Diet cubes coated with paraffin were sprayed with diluted test solutions in an application chamber. After drying off the treated cubes (10 replicates) were infested with 1 L1 larvae. Samples were incubated at 26-27° C. and checked 14 days after infestation for mortality and growth inhibition.

[4] = system: Frankliniella occidentalis; experiment: Activity against Frankliniella occidentalis (western flower thrips); conditions: foliar, 168 h, application rate 200 ppm, sprayed sunflower leaf discs, mixed ages, 7 days after infestation
Experimental: Sunflower leaf discs were placed on agar in 24-well microtiter plates and sprayed with aqueous test solutions prepared from […] stock solutions. After drying the leaf discs were infested with a Frankliniella population of mixed ages. The samples were assessed for mortality 7 days after infestation.

CCS(=O)(=O)c1cccnc1-c1cc2ccc(=O)n(CC(F)(F)C(F)(F)F)c2cn1 [P2, 6-(3-ethylsulfonyl-2-pyridyl)-1-(2,2,3,3,3-pentafluoropropyl)-1,7-naphthyridin-2-one]
≥ 80%: percent effect (mortality or growth inhibition) at 200 ppm (Euschistus heros) | percent effect (mortality or growth inhibition) at 200 ppm (Plutella xylostella) | mortality at 200 ppm (Myzus persicae [1]) | percent effect (mortality or growth inhibition) at 200 ppm (Diabrotica balteata) | percent control (mortality, anti-feedant effect or growth inhibition) at 200 ppm (Spodoptera littoralis) | mortality at 24 ppm (Myzus persicae [2]) | percent control (mortality, anti-feedant effect or growth inhibition) at 200 ppm (Chilo suppressalis)

CCS(=O)(=O)c1cc(C2(C#N)CC2)cnc1-c1cc2ccc(=O)n(CC(F)(F)C(F)(F)F)c2cn1 [P3, 1-[5-ethylsulfonyl-6-[2-oxo-1-(2,2,3,3,3-pentafluoropropyl)-1,7-naphthyridin-6-yl]-3-pyridyl]cyclopropanecarbonitrile]
≥ 80%: percent effect (mortality or growth inhibition) at 200 ppm (Euschistus heros) | mortality at 12.5 ppm [3] | percent effect (mortality or growth inhibition) at 200 ppm (Plutella xylostella) | mortality at 200 ppm (Myzus persicae [1]) | percent effect (mortality or growth inhibition) at 200 ppm (Diabrotica balteata) | mortality at 200 ppm [4] | percent control (mortality, anti-feedant effect or growth inhibition) at 200 ppm (Spodoptera littoralis) | mortality at 24 ppm (Myzus persicae [2]) | percent control (mortality, anti-feedant effect or growth inhibition) at 200 ppm (Chilo suppressalis)

CCS(=O)(=O)c1ccc(-n2cncn2)nc1-c1cc2ccc(=O)n(CC(F)(F)C(F)(F)F)c2cn1 [P4, 6-[3-ethylsulfonyl-6-(1,2,4-triazol-1-yl)-2-pyridyl]-1-(2,2,3,3,3-pentafluoropropyl)-1,7-naphthyridin-2-one]
≥ 80%: mortality at 12.5 ppm [3] | percent effect (mortality or growth inhibition) at 200 ppm (Plutella xylostella) | percent control (mortality, anti-feedant effect or growth inhibition) at 200 ppm (Spodoptera littoralis) | percent control (mortality, anti-feedant effect or growth inhibition) at 200 ppm (Chilo suppressalis)

CCS(=O)(=O)c1ccc(C2CC2)nc1-c1cc2ccc(=O)n(CC(F)(F)C(F)(F)F)c2cn1 [P5, 6-(6-cyclopropyl-3-ethylsulfonyl-2-pyridyl)-1-(2,2,3,3,3-pentafluoropropyl)-1,7-naphthyridin-2-one]
≥ 80%: percent effect (mortality or growth inhibition) at 200 ppm (Plutella xylostella) | mortality at 200 ppm (Myzus persicae [1]) | percent effect (mortality or growth inhibition) at 200 ppm (Diabrotica balteata) | percent control (mortality, anti-feedant effect or growth inhibition) at 200 ppm (Spodoptera littoralis) | percent control (mortality, anti-feedant effect or growth inhibition) at 200 ppm (Chilo suppressalis)

CCS(=O)(=O)c1cc(C(C)(C)C#N)cnc1-c1cc2ccc(=O)n(CC(F)(F)C(F)(F)F)c2cn1 [P6, 2-[5-ethylsulfonyl-6-[2-oxo-1-(2,2,3,3,3-pentafluoropropyl)-1,7-naphthyridin-6-yl]-3-pyridyl]-2-methyl-propanenitrile]
≥ 80%: percent effect (mortality or growth inhibition) at 200 ppm (Euschistus heros) | mortality at 12.5 ppm [3] | percent effect (mortality or growth inhibition) at 200 ppm (Plutella xylostella) | percent effect (mortality or growth inhibition) at 200 ppm (Diabrotica balteata) | percent control (mortality, anti-feedant effect or growth inhibition) at 200 ppm (Spodoptera littoralis) | percent control (mortality, anti-feedant effect or growth inhibition) at 200 ppm (Chilo suppressalis)

CCS(=O)(=O)c1cc(N(C)C(C)=O)cnc1-c1cc2ccc(=O)n(CC(F)(F)C(F)(F)F)c2cn1 [P7, N-[5-ethylsulfonyl-6-[2-oxo-1-(2,2,3,3,3-pentafluoropropyl)-1,7-naphthyridin-6-yl]-3-pyridyl]-N-methyl-acetamide]
≥ 80%: mortality at 200 ppm (Myzus persicae [1]) | percent effect (mortality or growth inhibition) at 200 ppm (Diabrotica balteata) | percent control (mortality, anti-feedant effect or growth inhibition) at 200 ppm (Spodoptera littoralis) | mortality at 24 ppm (Myzus persicae [2]) | percent control (mortality, anti-feedant effect or growth inhibition) at 200 ppm (Chilo suppressalis)

CCS(=O)(=O)c1cc(-n2ccc(Cl)n2)cnc1-c1cc2ccc(=O)n(CC(F)(F)C(F)(F)F)c2cn1 [P8, 6-[5-(3-chloropyrazol-1-yl)-3-ethylsulfonyl-2-pyridyl]-1-(2,2,3,3,3-pentafluoropropyl)-1,7-naphthyridin-2-one]
≥ 80%: percent effect (mortality or growth inhibition) at 200 ppm (Euschistus heros) | percent effect (mortality or growth inhibition) at 200 ppm (Plutella xylostella) | percent effect (mortality or growth inhibition) at 200 ppm (Diabrotica balteata) | percent control (mortality, anti-feedant effect or growth inhibition) at 200 ppm (Spodoptera littoralis) | percent control (mortality, anti-feedant effect or growth inhibition) at 200 ppm (Chilo suppressalis)

CCS(=O)(=O)c1cc(Oc2ccccn2)cnc1-c1cc2ccc(=O)n(CC(F)(F)C(F)(F)F)c2cn1 [P9, 6-[3-ethylsulfonyl-5-(2-pyridyloxy)-2-pyridyl]-1-(2,2,3,3,3-pentafluoropropyl)-1,7-naphthyridin-2-one]
≥ 80%: percent effect (mortality or growth inhibition) at 200 ppm (Euschistus heros) | percent effect (mortality or growth inhibition) at 200 ppm (Diabrotica balteata) | percent control (mortality, anti-feedant effect or growth inhibition) at 200 ppm (Spodoptera littoralis) | percent control (mortality, anti-feedant effect or growth inhibition) at 200 ppm (Chilo suppressalis)

CCS(=O)(=O)c1cc(C2(C#N)CC2)cnc1-c1cc2ccc(=O)n(CC(F)(F)F)c2cn1 [P10, 1-[5-ethylsulfonyl-6-[2-oxo-1-(2,2,2-trifluoroethyl)-1,7-naphthyridin-6-yl]-3-pyridyl]cyclopropanecarbonitrile]
≥ 80%: percent effect (mortality or growth inhibition) at 200 ppm (Euschistus heros) | mortality at 200 ppm (Myzus persicae [1]) | percent effect (mortality or growth inhibition) at 200 ppm (Diabrotica balteata) | percent control (mortality, anti-feedant effect or growth inhibition) at 200 ppm (Spodoptera littoralis) | percent control (mortality, anti-feedant effect or growth inhibition) at 200 ppm (Chilo suppressalis)

CCS(=O)(=O)c1ccc(-n2nccn2)nc1-c1cc2ccc(=O)n(CC(F)(F)C(F)(F)F)c2cn1 [P11, 6-[3-ethylsulfonyl-6-(triazol-2-yl)-2-pyridyl]-1-(2,2,3,3,3-pentafluoropropyl)-1,7-naphthyridin-2-one]
≥ 80%: percent effect (mortality or growth inhibition) at 200 ppm (Diabrotica balteata) | percent control (mortality, anti-feedant effect or growth inhibition) at 200 ppm (Spodoptera littoralis) | percent control (mortality, anti-feedant effect or growth inhibition) at 200 ppm (Chilo suppressalis)

CCS(=O)(=O)c1ccc(-n2ccnn2)nc1-c1cc2ccc(=O)n(CC(F)(F)C(F)(F)F)c2cn1 [P12, 6-[3-ethylsulfonyl-6-(triazol-1-yl)-2-pyridyl]-1-(2,2,3,3,3-pentafluoropropyl)-1,7-naphthyridin-2-one]
≥ 80%: percent effect (mortality or growth inhibition) at 200 ppm (Diabrotica balteata) | percent control (mortality, anti-feedant effect or growth inhibition) at 200 ppm (Spodoptera littoralis) | percent control (mortality, anti-feedant effect or growth inhibition) at 200 ppm (Chilo suppressalis)

CCSc1cc(C2(C#N)CC2)cnc1-c1cc2ccc(=O)n(CC(F)(F)C(F)(F)F)c2cn1 [P13, 1-[5-ethylsulfanyl-6-[2-oxo-1-(2,2,3,3,3-pentafluoropropyl)-1,7-naphthyridin-6-yl]-3-pyridyl]cyclopropanecarbonitrile]
≥ 80%: percent effect (mortality or growth inhibition) at 200 ppm (Plutella xylostella) | percent effect (mortality or growth inhibition) at 200 ppm (Diabrotica balteata) | percent control (mortality, anti-feedant effect or growth inhibition) at 200 ppm (Spodoptera littoralis) | percent control (mortality, anti-feedant effect or growth inhibition) at 200 ppm (Chilo suppressalis)

CCSc1cc(-n2ccc(Cl)n2)cnc1-c1cc2ccc(=O)n(CC(F)(F)C(F)(F)F)c2cn1 [P14, 6-[5-(3-chloropyrazol-1-yl)-3-ethylsulfanyl-2-pyridyl]-1-(2,2,3,3,3-pentafluoropropyl)-1,7-naphthyridin-2-one]
≥ 80%: percent control (mortality, anti-feedant effect or growth inhibition) at 200 ppm (Chilo suppressalis)

CCSc1cc(C2(C#N)CC2)cnc1-c1cc2ccc(=O)n(CC(F)(F)F)c2cn1 [P15, 1-[5-ethylsulfanyl-6-[2-oxo-1-(2,2,2-trifluoroethyl)-1,7-naphthyridin-6-yl]-3-pyridyl]cyclopropanecarbonitrile]
≥ 80%: percent effect (mortality or growth inhibition) at 200 ppm (Diabrotica balteata) | percent control (mortality, anti-feedant effect or growth inhibition) at 200 ppm (Spodoptera littoralis) | percent control (mortality, anti-feedant effect or growth inhibition) at 200 ppm (Chilo suppressalis)
